These results are taken from US20100292150A1, “Treatment of Menorrhagia with Aromatase Inhibitor” (MEDITRINA PHARMACEUTICALS, INC., priority 2007, published 2010).

For data set [1] the following is noted: marketed in the US for long-term chronic breast cancer therapy (five years and beyond); cited from earlier work.
The subject of data set [2] is Women with menorrhagia. The data set can be described thus: Safety profile of anastrozole compared to placebo in the same study. In kind it is in vivo. The note with it: 26 days of anastrozole. An excerpt: (§1) Women with menorrhagia were enrolled in the study and divided into two groups—one as Treatment Group and the other as Control Group. Administering of anastrozole to the women in the Treatment Group started on the second day of the menstrual cycle and lasted for 26 days. In some cases, the administration started on the third day due to site scheduling limitations. Conversely, the women in the Control Group received placebo during the same period. Data on the mean menstrual bleeding severity score were recorded on a daily basis according to the following categories of vaginal bleeding: 0=none; 1=spotting; 2=mild bleeding; 3=moderate bleeding; and 4=heavy bleeding.
The observation above was contrasted by women who received anastrozole for 26 consecutive days (Treatment Group). On Study Day 1, which corresponds to Cycle Day 2 as with the Control Group, the women were administered 20 mg of anastrozole in the clinic office and then […] for the remaining 25 days.

Data set [3] deals with Women with menorrhagia. The data set can be described thus: Daily menstrual bleeding severity score in women receiving anastrozole for 26 days vs placebo. It counts as in vivo.
From the text: as §1
In the Control Group, within 6 days, the average score was down to about zero. Over the next 20 days, the fluctuations in menstrual bleeding severity would also be considered typical in that some women experience “breakthrough bleeding” which was reflected in the deviation from zero that would be expected in models of normal cycles, but was not reflected in reality. This was particularly notable during the second half of the menstrual cycle.
The observation above was contrasted by women who received anastrozole for 26 consecutive days (Treatment Group). […]

The subject of data set [4] is healthy premenopausal women. The following applies: 5, 10, 15 and 20 mg, single and multiple dose; 26 healthy premenopausal women; cited from earlier work.

For `N#Cc1ccc(C(c2ccc(C#N)cc2)n2cncn2)cc1` [letrozole], in data set [1], the general safety entry is “generally accepted as safe drugs”.
As to `CC(C)(C#N)c1cc(Cn2cncn2)cc(C(C)(C)C#N)c1` [anastrozole], the safety liabilities entry in data set [2] was “does not appear to have any significant safety liabilities”. Also, the general safety result in data set [1] is recorded as “generally accepted as safe drugs”. Besides, in data set [3] (20 mg on Study Day 1, then 10 mg/day for remaining 25 days, contrasted with placebo), the “reported bleeding over the remaining days of treatment” value is “no bleeding or spotting reported until the very end of the cycle”. In addition, the “mean bleeding severity at the start of the treatment interval” value in data set [3] (score 0=none to 4=heavy bleeding, Study Day 1 = Cycle Day 2, 20 mg anastrozole on day 1) is approximately 3. In addition, in data set [4], the adverse events result is reported as “no severe, serious, or otherwise significant adverse events”.
Take `C=C1C[C@@H]2[C@H](CC[C@]3(C)C(=O)CC[C@@H]23)[C@@]2(C)C=CC(=O)C=C12` [exemestane]: the general safety entry in data set [1] is given as “generally accepted as safe drugs”.
